From patent US9656962B2, “Ring-contracted morphinans and the use thereof” (Purdue Pharma L.P., priority 2013, dated 2017)

Assays:
μ-opioid receptor [1] = target: T1, μ-opioid receptor (Homo sapiens (Human), UniProt P35372); assay: μ-opioid receptor radioligand binding assay ([3H]-diprenorphine); conditions: binding affinity
Protocol: μ-Opioid Receptor Binding Assay Procedures: Radioligand dose-displacement binding assays for μ-opioid receptors used 0.3 nM [^3H]-diprenorphine (Perkin Elmer, Shelton, Conn.), with […] membrane protein/well in a final volume of 500 μl binding buffer (10 mM MgCl2, 1 mM EDTA, 5% DMSO, 50 mM HEPES, pH 7.4). Reactions were carried out in the absence or presence of increasing concentrations of unlabeled naloxone. All reactions were conducted in 96-deep well polypropylene plates for 2 hours at room temperature. Binding reactions were terminated by rapid filtration onto 96-well Unifilter GF/C filter plates (Perkin Elmer, Shelton, Conn.), presoaked in 0.5% polyethylenimine using a 96-well tissue harvester (Perkin Elmer, Shelton, Conn.) followed by performing three filtration washes with 500 μl of ice-cold binding buffer. Filter plates were subsequently dried at 50° C. for 2-3 hours. BetaScint scintillation cocktail (Perkin Elmer, Shelton, Conn.) was added (50 μl/well), and plates were counted using a Packard Top-Count for 1 min/well. The data were analyzed using the one-site competition curve fitting functions in GraphPad PRISM™ v. 3.0 or higher (San Diego, Calif.), or an in-house function for one-site competition curve-fitting.

[2] = target: recombinant human kappa opioid receptor (κ) (Homo sapiens (Human), UniProt P41145); assay: κ-opioid receptor radioligand binding assay ([3H]-U69,593); conditions: binding affinity
Protocol: κ-Opioid Receptor Binding Assay Procedures: Membranes from HEK-293 cells, CHO cells or U-2 OS cells expressing the recombinant human kappa opioid receptor (κ) were prepared by lysing cells in ice cold hypotonic buffer (2.5 mM MgCl2, 50 mM HEPES, pH 7.4) (10 mL/10 cm dish) followed by homogenization with a tissue grinder/Teflon pestle. Membranes from a cell line naturally expressing kappa opioid receptor can also be used. Membranes were collected by centrifugation at 30,000×g for 15 min at 4° C. and pellets were resuspended in hypotonic buffer to a final concentration of 1-3 mg/mL. Protein concentrations were determined using the BioRad protein assay reagent with bovine serum albumen as standard. Aliquots of κ receptor membranes were stored at −80° C.
Radioligand dose displacement assays used 0.4 nM [^3H]-U69,593 (GE Healthcare, Piscataway, N.J.; 40 Ci/mmole) with 15 μg membrane protein (recombinant opioid receptor expressed in HEK 293 cells; in-house prep) in a final volume of 200 μl binding buffer (5% DMSO, 50 mM Trizma base, pH 7.4). Non-specific binding was determined in the presence of 10 μM unlabeled naloxone or U69,593. All reactions were performed in 96-well polypropylene plates for 1 hour at a temperature of about 25° C. Binding reactions were terminated by rapid filtration onto 96-well Unifilter GF/C filter plates (Perkin Elmer, Shelton, Conn.) presoaked in 0.5% polyethylenimine (Sigma). Harvesting was performed using a 96-well tissue harvester (Perkin Elmer, Shelton, Conn.) followed by five filtration washes with 200 μl ice-cold binding buffer. Filter plates were subsequently dried at 50° C. for 1-2 hours. Fifty μl/well scintillation cocktail (Perkin Elmer, Shelton, Conn.) was added and plates were counted in a Packard Top-Count for 1 min/well.

μ-opioid receptor [3] = target: T1, μ-opioid receptor; assay: μ-opioid receptor [35S]GTPγS functional assay, HEK-293 or CHO cells (Table 4); assay type: biochemical; conditions: for Emax: relative to DAMGO; for EC50: μ GTP
How it was run: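 Membranes from HEK-293, CHO or U-2 OS cells (or commercial) expressing recombinant μ receptor; 0.20 nM [35S]GTPγS, 3 mM GDP, saponin, in 100 mM NaCl/10 mM MgCl2/20 mM HEPES pH 7.4.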

κ-opioid receptor [4] = target: T2, κ-opioid receptor (Homo sapiens (Human), UniProt P41145); assay: κ-opioid receptor [35S]GTPγS functional assay, HEK-293 or CHO cells (Table 4); assay type: biochemical; conditions: for Emax: relative to U69,593; for EC50: κ GTP
Protocol: (§1) κ-Opioid Receptor Functional Assay Procedures: Functional [^35S]GTPγS binding assays were conducted as follows. κ opioid receptor membrane solution was prepared by sequentially adding final concentrations of 0.026 μg/μl κ membrane protein (in-house), 10 μg/mL saponin, 3 μM GDP and 0.20 nM [^35S]GTPγS to binding buffer (100 mM NaCl, 10 mM MgCl2, 20 mM HEPES, pH 7.4) on ice. The prepared membrane solution (190 μl/well) was transferred to 96-shallow well polypropylene plates containing 10 μl of 20× concentrated stock solutions of agonist prepared in DMSO. Plates were incubated for 30 min at a temperature of about 25° C. with shaking. Reactions were terminated by rapid filtration onto 96-well Unifilter GF/B filter plates (Perkin Elmer, Shelton, Conn.) using a 96-well tissue harvester (Packard) and followed by three filtration washes with 200 μl ice-cold binding buffer (10 mM NaH2PO4, 10 mM Na2HPO4, pH 7.4). Filter plates were subsequently dried at 50° C. for 2-3 hours. Fifty μl/well scintillation cocktail (Perkin Elmer, Shelton, Conn.) was added and plates were counted in a Packard Top-Count for 1 min/well.
κ GTP Emax (%) is the maximal effect elicited by a compound relative to the effect elicited by U69,593.
In TABLE 4, activity response of certain Compounds of the Invention to the μ- and κ-opioid receptors was determined as described above for functional assays using HEK-293 or CHO cells.

μ-opioid receptor [5] = target: T1, μ-opioid receptor; assay: μ-opioid receptor [35S]GTPγS functional assay, U-2 OS cells (Table 5); assay type: biochemical; conditions: for Emax: relative to DAMGO; for EC50: μ GTP
How it was run: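 Membranes (0.026 mg/mL) from cells expressing recombinant human μ-opioid receptor in a U-2 OS background were incubated with 0.20 nM [35S]GTPγS, 3 mM GDP and saponin in 20 mM HEPES pH 7.4, 100 mM NaCl, 10 mM MgCl2 for 30 min at about 25 °C. Filter-bound radioactivity counted; sigmoidal dose-response fits gave values, Emax relative to DAMGO.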

κ-opioid receptor [6] = target: T2, κ-opioid receptor; assay: κ-opioid receptor [35S]GTPγS functional assay, U-2 OS cells (Table 5); assay type: biochemical; conditions: for Emax: relative to U69,593; for EC50: κ GTP
How it was run: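 [35S]GTPγS binding in κ receptor membranes (0.026 μg/μl protein) with 10 μg/mL saponin, 3 μM GDP and 0.20 nM [35S]GTPγS in pH 7.4 HEPES/NaCl/MgCl2 buffer. Agonist incubation lasted 30 min at about 25 °C, followed by filtration and scintillation counting. Emax is expressed relative to U69,593.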

δ-opioid receptor = δ-opioid receptor (Homo sapiens (Human), UniProt P41143); assay: δ-opioid receptor [35S]GTPγS functional assay (Table 4); assay type: biochemical
Chain of δ-opioid receptor (P41143 whole entry, looked up): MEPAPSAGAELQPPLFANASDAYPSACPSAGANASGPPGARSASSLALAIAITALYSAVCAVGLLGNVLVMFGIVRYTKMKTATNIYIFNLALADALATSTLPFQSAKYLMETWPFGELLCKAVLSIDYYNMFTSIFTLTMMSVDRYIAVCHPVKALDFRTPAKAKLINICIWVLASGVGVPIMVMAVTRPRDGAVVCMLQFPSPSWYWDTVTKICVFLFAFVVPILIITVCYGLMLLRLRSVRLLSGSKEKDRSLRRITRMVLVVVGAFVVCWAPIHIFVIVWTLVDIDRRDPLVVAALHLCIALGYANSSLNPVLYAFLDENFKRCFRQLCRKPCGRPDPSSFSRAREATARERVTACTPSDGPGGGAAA
Protocol: as §1, with “δ-Opioid” for “κ-Opioid”, “δ” for “κ”, “(Perkin Elmer, Shelton, Conn.),” for “(in-house),”, “shaking” for “shaking.”, “1-2” for “2-3”, “Top-count” for “Top-Count”
δ GTP Emax (%) is the maximal effect elicited by a compound relative to the effect elicited by met-enkephalin.

## O=C(O)[C@@H]1C[C@]23CCN(CC4CC4)[C@H](Cc4ccc(O)cc42)[C@]3(O)C1 [Compound 16, (2R,3aS,4R,9bS)-12-(cyclopropylmethyl)-3a,8-dihydroxy-1,2,3,3a,4,5-hexahydro-4,9b-(epiminoethano)-cyclopenta-[a]naphthalene-2-carboxylic acid]
μ-opioid receptor [1]
  Ki: 55.6 ± 11 nM
[2]
  Ki: 17.3 ± 6.19 nM
μ-opioid receptor [3]
  Emax: 1%
μ-opioid receptor [3]; bound given in μM
  EC50: > 20 µM
κ-opioid receptor [4]
  Emax: 38 ± 2.04%
  EC50: 12.4 ± 3.66 nM
μ-opioid receptor [5]
  Emax: 31.8 ± 3.07%
  EC50: 4.75 ± 0.62 nM
κ-opioid receptor [6]
  Emax: 90.7 ± 5.81%
  EC50: 13.2 ± 1.86 nM

## COC(=O)[C@@H]1C[C@]23CCN(CC4CC4)[C@H](Cc4ccc(O)cc42)[C@]3(O)C1 [Compound 12, (2R,3aS,4R,9bS)-methyl-12-(cyclopropylmethyl)-3a,8-dihydroxy-1,2,3,3a,4,5-hexahydro-4,9b-(epimino-ethano)cyclopenta[a]naphthalene-2-carboxylate]
μ-opioid receptor [1]
  Ki: 0.53 ± 0.076 nM
[2]
  Ki: 0.3 ± 0.056 nM
μ-opioid receptor [3]
  Emax: 1%
μ-opioid receptor [3]; bound given in μM
  EC50: > 20 µM
κ-opioid receptor [4]
  Emax: 82.7 ± 1.2%
  EC50: 2.95 ± 1.06 nM
μ-opioid receptor [5]
  Emax: 55.6 ± 3.83%
  EC50: 1.22 ± 0.27 nM
κ-opioid receptor [6]
  Emax: 108 ± 3.51%
  EC50: 1.7 ± 0.26 nM

## O=C(NCc1ccccc1)[C@@H]1C[C@]23CCN(CC4CC4)[C@H](Cc4ccc(O)cc42)[C@]3(O)C1 [Compound 33, (2R,3aS,4R,9bS)-N-benzyl-12-(cyclopropylmethyl)-3a,8-dihydroxy-1,2,3,3a,4,5-hexahydro-4,9b-(epiminoethano)cyclopenta[a]naphthalene-2-carboxamide]
μ-opioid receptor [1]
  Ki: 1.39 ± 0.082 nM
[2]
  Ki: 0.75 ± 0.13 nM
μ-opioid receptor [3]
  Emax: 1%
μ-opioid receptor [3]; bound given in μM
  EC50: > 20 µM
κ-opioid receptor [4]
  Emax: 43.3 ± 0.33%
  EC50: 7.03 ± 0.82 nM
μ-opioid receptor [5]
  Emax: 45.7 ± 0.67%
  EC50: 3.84 ± 0.21 nM
κ-opioid receptor [6]
  Emax: 103 ± 3.48%
  EC50: 3.18 ± 0.46 nM

## COc1ccc2c(c1)[C@]13CCN(CC4CC4)[C@H](C2)[C@]1(O)C[C@H](C(N)=O)C3 [Compound 11, (2R,3aS,4R,9bS)-12-(cyclopropylmethyl)-3a-hydroxy-8-methoxy-1,2,3,3a,4,5-hexahydro-4,9b-(epiminoethano)cyclo-penta[a]naphthalene-2-carboxamide]
μ-opioid receptor [1]
  Ki: 2980 ± 466 nM
[2]
  Ki: 182 ± 29.2 nM
κ-opioid receptor [6]
  Emax: 103 ± 1.67%
  EC50: 1360 ± 49.8 nM

## O=C(NCc1ccc(O)cc1O)[C@H]1C[C@]23CCN(CC4CC4)[C@H](Cc4ccc(O)cc42)[C@]3(O)C1 [Compound 42, (2S,3aS,4R,9bS)-12-(cyclopropylmethyl)-N-(2,4-dihydroxybenzyl)-3a,8-dihydroxy-1,2,3,3a,4,5-hexahydro-4,9b-(epimino-ethano)cyclopenta[a]naphthalene-2-carboxamide]
μ-opioid receptor [1]
  Ki: 0.4 ± 0.024 nM
[2]
  Ki: 0.37 ± 0.13 nM
μ-opioid receptor [3]
  Emax: 1%
μ-opioid receptor [3]; bound given in μM
  EC50: > 20 µM
κ-opioid receptor [4]
  Emax: 98.3 ± 1.33%
  EC50: 0.32 ± 0.059 nM
μ-opioid receptor [5]
  Emax: 35 ± 1.15%
  EC50: 1.33 ± 0.12 nM
κ-opioid receptor [6]
  Emax: 87.7 ± 4.63%
  EC50: 1.27 ± 0.076 nM

## Cc1ccc(CNC(=O)[C@H]2C[C@]34CCN(CC5CC5)[C@H](Cc5ccc(O)cc53)[C@]4(O)C2)cc1 [Compound 38, (2S,3aS,4R,9bS)-12-(cyclopropylmethyl)-3a,8-dihydroxy-N-(4-methylbenzyl)-1,2,3,3a,4,5-hexahydro-4,9b-(epiminoethano)cyclopenta[a]naphthalene-2-carboxamide]
[2]
  Ki: 0.16 ± 0.044 nM
μ-opioid receptor [3]
  Emax: 56.5 ± 2.6%
  EC50: 0.00062 ± 0.00012 µM
κ-opioid receptor [4]
  Emax: 96.3 ± 3.18%
  EC50: 0.43 ± 0.048 nM
δ-opioid receptor; relative to met-enkephalin
  Emax: 50.1 ± 1.25%
δ-opioid receptor; δ GTP
  EC50: 1.56 ± 0.055 nM
μ-opioid receptor [5]
  Emax: 77.7 ± 2.4%
  EC50: 0.25 ± 0.024 nM
κ-opioid receptor [6]
  Emax: 105 ± 3.18%
  EC50: 0.065 ± 0.01 nM

## N=C(N)NCCCCNC(=O)[C@@H]1C[C@]23CCN(CC4CC4)[C@H](Cc4ccc(O)cc42)[C@]3(O)C1 [Compound 7, (2R,3aS,4R,9bS)-12-(cyclopropylmethyl)-N-(4-guanidinobutyl)-3a,8-dibydroxy-1,2,3,3a,4,5-hexahydro-4,9b-(epimino-ethano)cyclopenta[a]naphthalene-2-carboxamide]
μ-opioid receptor [1]
  Ki: 23.6 ± 5.56 nM
[2]
  Ki: 0.13 ± 0.018 nM
μ-opioid receptor [3]
  Emax: 1%
μ-opioid receptor [3]; bound given in μM
  EC50: > 20 µM
κ-opioid receptor [4]
  Emax: 57.5 ± 1.66%
  EC50: 0.8 ± 0.26 nM
μ-opioid receptor [5]
  Emax: 56.3 ± 2.6%
  EC50: 8.94 ± 1.31 nM
κ-opioid receptor [6]
  Emax: 101 ± 3.67%
  EC50: 1.16 ± 0.16 nM
